Measurements: ChEMBL document CHEMBL1129800, “Cycloalkylpyranones and cycloalkyldihydropyrones as HIV protease inhibitors: exploring the impact of ring size on structure-activity relationships” (J Med Chem, 1996)

Experiments:
[1] = target: Human immunodeficiency virus type 1 protease (Human immunodeficiency virus 1, UniProt Q72874); test: Binding affinity towards HIV protease was determined
[2] = tested on: H9; test: Effective dose for antiviral activity against HIV-1-infected H-9 cells; assay type: functional; conditions: Homo sapiens, read-out: ED50 (the source's name)
[3] = tested on: H9; test: Compound at 3 uM was tested for antiviral activity against HIV-1-infected H-9 cells; assay type: functional; conditions: Homo sapiens

Row | SMILES | Ki [1] [nM] | EC50 [2] [nM] | inhibition at 3 µM [3] [%]
1 | CCC(c1ccccc1)c1c(O)c2c(oc1=O)CCCCCCC2 (stereo unspecified) | > 2000 |  | 
2 | CC(C)(C)C(C1=C(O)OC2CCCCCCC2C1=O)c1cccc(NS(=O)(=O)c2ccc(C#N)cc2)c1 (stereo unspecified) | 0.2 | 2500 | 
3 | CCC(C1=C(O)OC2CCCCC2C1=O)c1ccccc1 (stereo unspecified) | 670 |  | 
4 | CCC(C1=C(O)OC2CCCCCCC2C1=O)c1ccccc1 (stereo unspecified) | 1200 |  | 
5 | CCC(c1ccccc1)c1c(O)c2c(oc1=O)CCC2 (stereo unspecified) | 700 |  | 
6 | CCC(C1=C(O)OC2CCCCCC2C1=O)c1ccccc1 (stereo unspecified) | > 1200 |  | 
7 | CCC(c1cccc(NS(=O)(=O)c2ccc(C#N)cn2)c1)c1c(O)c2c(oc1=O)CCC2 (stereo unspecified) | 0.075 | 8600 | 
8 | CCC(C1=C(O)OC2CCCCC2C1=O)c1cccc(NS(=O)(=O)c2ccc(C#N)cc2)c1 (stereo unspecified) | 15 |  | < 10
9 | CCC(c1ccccc1)c1c(O)c2ccccc2oc1=O (stereo unspecified) [PHENPROCOUMON] | 800 |  | 
10 | CCC(c1ccccc1)c1c(O)c2c(oc1=O)CCCC2 (stereo unspecified) | 1100 |  | 
11 | CCC(C1=C(O)OC2CCCC2C1=O)c1ccccc1 (stereo unspecified) | > 2000 |  | 
12 | CCC(C1=C(O)C2CCCCC2OC1=O)c1cccc(NS(=O)(=O)c2ccc(C#N)cn2)c1 (stereo unspecified) | 0.05 | 950 | 
